From patent US8906935B2, “Thiazolyl- and oxazolyl-isoquinolinones and methods for using them” (priority 2008, dated 2014)
Counter-ions that a name gives are not always drawn.

Molecular target: T1, hrPARP-1 (human recombinant) (Homo sapiens, UniProt P09874)
T1 construct: purchased Trevigen
Assay: Functional assessment of human PARP-1 enzymatic activity
Type: biochemical
Details: 1 U hrPARP-1, 15 μg/mL activated DNA, 5 μM NAD+, 20 min room temperature, fluorescence readout
Procedure: Functional Assessment of Human PARP-1 Enzymatic Activity
hrPARP-1 (human recombinant, Trevigen), Activated DNA (Sigma), 6(5H)-phenanthridinone (PND), (Sigma), NAD+ (Calbiochem), PARP-1 assay buffer (50 mM Tris, 2 mM MgCl2, pH 8.0), 20% acetophenone in EtOH, 2 M KOH 88% formic acid, 110° C. oven, Flexstation Plate Reader.
Compound plates were prepared by making a series of 1:3 dilutions for each tested compound, 10 steps of each at 20 μL in DMSO starting from a concentration of 5 mM. NAD^+ (39 μL of a 6.4 μM solution) were added to each well of a 96-well flat bottom fluorescent assay plate. Test compound (1 μL) was added to each well. To initiate the reaction, 10 μL of PARP (contains 5 U of PARP and 75 μg/mL activated DNA) was added with a final 1 U hrPARP-1, 15 μg/mL activated DNA and 5 μM of NAD^+. The highest concentration used for test compounds was 100 μM. The plates were incubated at room temperature on a shaker, After 20 min, 20 μL of 2 M KOH and 20 μL of 20% acetophenone were added. The plate was incubated 10 min. at 4° C., and 90 μL of 88% formic acid was added. After incubating in a 110° C. oven for 5 min, the plate was cooled to room temperature and read of a Flexstation Plate Reader (excitation at 360 nm, emission at 445 nm).
LSW data analysis software was used to generate PARP-1 IC50s.

T1 sequence (P09874 whole entry): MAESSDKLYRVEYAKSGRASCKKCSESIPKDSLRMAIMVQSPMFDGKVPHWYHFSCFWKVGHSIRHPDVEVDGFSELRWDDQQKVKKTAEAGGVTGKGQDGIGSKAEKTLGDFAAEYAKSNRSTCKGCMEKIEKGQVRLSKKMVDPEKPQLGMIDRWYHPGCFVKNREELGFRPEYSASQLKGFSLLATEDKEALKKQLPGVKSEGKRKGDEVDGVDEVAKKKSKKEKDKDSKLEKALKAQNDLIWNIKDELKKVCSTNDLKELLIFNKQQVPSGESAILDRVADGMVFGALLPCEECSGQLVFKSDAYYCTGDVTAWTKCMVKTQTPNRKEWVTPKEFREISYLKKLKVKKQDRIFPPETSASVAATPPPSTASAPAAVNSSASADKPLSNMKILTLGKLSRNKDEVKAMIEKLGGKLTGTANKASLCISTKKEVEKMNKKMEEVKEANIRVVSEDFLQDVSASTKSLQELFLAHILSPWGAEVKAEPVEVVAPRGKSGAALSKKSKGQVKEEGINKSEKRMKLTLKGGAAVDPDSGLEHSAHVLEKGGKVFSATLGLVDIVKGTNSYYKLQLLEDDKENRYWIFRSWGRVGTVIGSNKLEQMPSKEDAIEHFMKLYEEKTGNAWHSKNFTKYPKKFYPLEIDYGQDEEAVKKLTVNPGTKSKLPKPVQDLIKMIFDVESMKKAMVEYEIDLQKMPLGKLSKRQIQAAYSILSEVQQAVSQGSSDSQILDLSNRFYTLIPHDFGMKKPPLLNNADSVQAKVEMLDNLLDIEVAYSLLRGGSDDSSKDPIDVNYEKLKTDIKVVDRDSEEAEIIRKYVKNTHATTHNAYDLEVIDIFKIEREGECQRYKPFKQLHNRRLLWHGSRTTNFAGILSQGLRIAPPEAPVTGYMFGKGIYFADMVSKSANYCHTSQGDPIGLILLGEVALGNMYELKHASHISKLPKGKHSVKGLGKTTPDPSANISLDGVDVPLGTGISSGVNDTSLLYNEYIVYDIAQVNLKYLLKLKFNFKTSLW

Row | SMILES | IC50 [nM]
1 | CN(C)[C@@H]1CCN(Cc2nc3c([nH]c(=O)c4cccc(O)c43)s2)C1 [Example 8, 2-{[(3R)-3-(dimethylamino)pyrrolidin-1-yl]methyl}-9-hydroxy[1,3]thiazolo[5,4-c]isoquinolin-5(4H)-one] | 223
2 | CN(C)CCc1nc2c([nH]c(=O)c3ccccc32)s1 [Example 3, 2-(2-(Dimethylamino)ethyl)thiazolo[5,4-c]isoquinolin-5(4H)-one] | 358
3 | O=c1[nH]c2sc(CN3CCCC4CCCCC43)nc2c2c(O)cccc12 (stereo not shown) [Example 9, 9-Hydroxy-2-(octahydroquinolin-1(2H)-ylmethyl)[1,3]thiazolo[5,4-c]isoquinolin-5(4H)-one] | 2450
4 | O=c1[nH]c2sc(CN3CCCC3)nc2c2c(O)cccc12 [Example 7, 9-Hydroxy-2-(pyrrolidin-1-ylmethyl)[1,3]thiazolo[5,4-c]isoquinolin-5(4H)-one] | 111
5 | CN(C)Cc1nc2c([nH]c(=O)c3ccccc32)s1 [Example 1, 2-[(Dimethylamino)methyl][1,3]thiazolo[5,4-c]isoquinolin-5(4H)-one hydrochloride] | 378
6 | CN(C)CC#Cc1nc2c([nH]c(=O)c3ccccc32)s1 [Example 2, 2-[3-(Dimethylamino)prop-1-yn-1-yl][1,3]thiazolo[5,4-c]isoquinolin-5(4H)-one] | 414
7 | CN(C)Cc1nc2c([nH]c(=O)c3cccc(O)c32)s1 [Example 4, 2-((Dimethylamino)methyl)-9-hydroxythiazolo[5,4-c]isoquinolin-5(4H)-one] | 99
8 | O=c1[nH]c2sc(CN3CCOCC3)nc2c2c(O)cccc12 [Example 5, 9-Hydroxy-2-(morpholin-4-ylmethyl)[1,3]thiazolo[5,4-c]isoquinolin-5(4H)-one] | 18.3
9 | O=c1[nH]c2sc(CN3CCCCC3)nc2c2c(O)cccc12 [Example 6, 9-Hydroxy-2-(piperidin-1-ylmethyl)[1,3]thiazolo[5,4-c]isoquinolin-5(4H)-one] | 1370

Second part, the compound after the results:

Row | IC50 [nM] | SMILES
10 | 3090 | C[C@@H]1CN(Cc2nc3c([nH]c(=O)c4cccc(O)c43)s2)C[C@H](C)O1 [Example 10, 2-{[(2R,6S)-2,6-Dimethylmorpholin-4-yl]methyl}-9-hydroxy[1,3]thiazolo[5,4-c]isoquinolin-5(4H)-one]
11 | 3500 | O=c1[nH]c2sc(CN3CCC[C@@H]3C(F)(F)F)nc2c2c(O)cccc12 [Example 12, 9-Hydroxy-2-{[(2R)-2-(trifluoromethyl)pyrrolidin-1-yl]methyl}[1,3]thiazolo[5,4-c]isoquinolin-5(4H)-one]
12 | 1500 | C[C@@H]1CCC[C@H](C)N1Cc1nc2c([nH]c(=O)c3cccc(O)c32)s1 [Example 13, 2-{[(2R,6S)-2,6-Dimethylpiperidin-1-yl]methyl}-9-hydroxy[1,3]thiazolo[5,4-c]isoquinolin-5(4H)-one]
13 | 747 | CC1CCCN1Cc1nc2c([nH]c(=O)c3cccc(O)c32)s1 (stereo not shown) [Example 11, 9-Hydroxy-2-[(2-methylpyrrolidin-1-yl)methyl][1,3]thiazolo[5,4-c]isoquinolin-5(4H)-one]
